Molecular target: T1, Nv-laforin (Nematostella vectensis, UniProt A7SVW9)
T1 construct: gene NEMVEDRAFT_v1g194103; complete open reading frame from Nematostella DNA; GST-Nv-laforin-HIS6 from E. coli BL21 (DE3) CodonPlus RIL; CBM20 plus DSP
T1 sequence (A7SVW9 1-324): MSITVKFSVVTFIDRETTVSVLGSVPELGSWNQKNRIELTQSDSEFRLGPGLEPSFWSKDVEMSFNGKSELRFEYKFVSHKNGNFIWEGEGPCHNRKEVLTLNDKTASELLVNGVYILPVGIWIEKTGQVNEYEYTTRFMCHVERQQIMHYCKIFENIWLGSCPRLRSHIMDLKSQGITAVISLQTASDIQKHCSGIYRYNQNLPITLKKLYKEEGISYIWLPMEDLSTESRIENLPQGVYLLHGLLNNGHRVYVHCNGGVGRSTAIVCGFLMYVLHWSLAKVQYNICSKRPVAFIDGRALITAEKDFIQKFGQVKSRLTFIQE
Assay: p-NPP hydrolysis, absorbance […] nm
Format: biochemical
Conditions: 50 mM pNPP, pH 5-8 tested (optimum pH 7.5), 37 °C, 2 mM dithiothreitol, 0.1 M sodium acetate, 0.05 M bis-Tris, 0.05 M Tris-HCl

O=[N+]([O-])c1ccc(OP(=O)(O)O)cc1 [para-nitrophenylphosphate]
p-NPP hydrolysis, absorbance 410 nm: Both Bf- and Nv-laforin also utilized p-NPP as an artificial substrate
